From PubChem BioAssay AID2060887 (Molecular Pharmacology Branch, DTP, NCI, 2025)
Where “and” joins values, the source holds several entries; their conditions need not be identical. Identical values can stand only once.

System: 782815-120-R-J1-PDC complex spheroid viability
Test: Anticancer human tumor 782815-120-R-J1-PDC patient-derived colon adenocarcinoma cell line growth inhibition [RAS]
Details: for viability, T/C: stronger effect = lower value; active = viability on the fitted dose curve at most 10% of control; inactive = the rest
How it was run: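 Multi-cell-type spheroids: tumor cells plus HUVEC endothelial cells and mesenchymal stem cells. RAS-pathway inhibitors were combined with targeted agents, each dosed in half-log steps down from clinical Cmax, or from 10 microM when Cmax was unknown.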
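Also: spheroids exposed to compounds for 7 days before reading.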
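For viability, T/C in this document: 100% = DMSO vehicle control viability.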

CCc1c2c(nc3ccc(O)cc13)-c1cc3c(c(=O)n1C2)COC(=O)[C@]3(O)CC + CCn1c(-c2cc(N3CCN(C)CC3)cnc2C(C)OC)c2c3cc(ccc31)-c1csc(n1)CC(NC(=O)C1CC1C)C(=O)N1CCCC(N1)C(=O)OCC(C)(C)C2
inactive: viability, T/C (second compound 0.000949 µM, first compound 0.000949 µM) 70.4% | viability, T/C (second compound 0.000949 µM, first compound 0.003 µM) 45.9% | viability, T/C (second compound 0.000949 µM, first compound 0.00949 µM) 19.8% | viability, T/C (second compound 0.003 µM, first compound 0.000949 µM) 66.6% | viability, T/C (second compound 0.003 µM, first compound 0.003 µM) 38.8% | viability, T/C (second compound 0.003 µM, first compound 0.00949 µM) 23.4% | viability, T/C (second compound 0.003 µM, first compound 0.03 µM) 12.9% | viability, T/C (second compound 0.00949 µM, first compound 0.000949 µM) 32.7% | viability, T/C (second compound 0.00949 µM, first compound 0.003 µM) 28.5% | viability, T/C (second compound 0.00949 µM, first compound 0.00949 µM) 15.4% | viability, T/C (second compound 0.00949 µM, first compound 0.03 µM) 12.7% | viability, T/C (second compound 0.03 µM, first compound 0.000949 µM) 19.6% | viability, T/C (second compound 0.03 µM, first compound 0.003 µM) 16.7% | viability, T/C (second compound 0.03 µM, first compound 0.00949 µM) 11.7% | viability, T/C (second compound 0.0949 µM, first compound 0.000949 µM) 15.5% | viability, T/C (second compound 0.0949 µM, first compound 0.003 µM) 16.3% | viability, T/C (second compound 0.0949 µM, first compound 0.00949 µM) 11.7% | viability, T/C (second compound 0.3 µM, first compound 0.000949 µM) 14.3% | viability, T/C (second compound 0.3 µM, first compound 0.003 µM) 13.6% | viability, T/C (second compound 0.3 µM, first compound 0.00949 µM) 10.7%
1.92 nM: IC50 (curve of first compound, second compound 0.003 µM)
active: viability, T/C (second compound 0.000949 µM, first compound 0.03 µM) 10.8% | viability, T/C (second compound 0.000949 µM, first compound 0.0949 µM) 3.9% | viability, T/C (second compound 0.000949 µM, first compound 0.3 µM) 1.57% | viability, T/C (second compound 0.003 µM, first compound 0.0949 µM) 4.38% | viability, T/C (second compound 0.003 µM, first compound 0.3 µM) 1.89% | viability, T/C (second compound 0.00949 µM, first compound 0.0949 µM) 7.05% | viability, T/C (second compound 0.00949 µM, first compound 0.3 µM) 1.84% | viability, T/C (second compound 0.03 µM, first compound 0.03 µM) 10.4% | viability, T/C (second compound 0.03 µM, first compound 0.0949 µM) 6.53% | viability, T/C (second compound 0.03 µM, first compound 0.3 µM) 1.73% | viability, T/C (second compound 0.0949 µM, first compound 0.03 µM) 10.5% | viability, T/C (second compound 0.0949 µM, first compound 0.0949 µM) 7.5% | viability, T/C (second compound 0.0949 µM, first compound 0.3 µM) 0.75% | viability, T/C (second compound 0.3 µM, first compound 0.03 µM) 13.1% | viability, T/C (second compound 0.3 µM, first compound 0.0949 µM) 7.92% | viability, T/C (second compound 0.3 µM, first compound 0.3 µM) 1.5%
2.4 nM: IC50 (curve of first compound, second compound 0.000949 µM)
< 0.949 nM: IC50 (curve of first compound, second compound 0.00949 µM) | IC50 (curve of first compound, second compound 0.03 µM) | IC50 (curve of first compound, second compound 0.0949 µM) | IC50 (curve of first compound, second compound 0.3 µM)

CCc1c2c(nc3ccc(O)cc13)-c1cc3c(c(=O)n1C2)COC(=O)[C@]3(O)CC + C=CC(=O)N1CCN(c2nc(OCC3CCCN3C)nc3c(F)c(-c4nc(N)cc(C)c4C(F)(F)F)c(Cl)cc23)C(C)C1
3.93 nM: IC50 (curve of first compound, second compound 0.01 µM)
4.6 nM: IC50 (curve of first compound, second compound 0.0316 µM)
4.07 nM: IC50 (curve of first compound, second compound 0.316 µM)
3.92 nM: IC50 (curve of first compound, second compound 0.1 µM)
active: viability, T/C (second compound 0.00316 µM, first compound 0.03 µM) 9.72% | viability, T/C (second compound 0.00316 µM, first compound 0.0949 µM) 3.7% | viability, T/C (second compound 0.00316 µM, first compound 0.3 µM) 1.61% | viability, T/C (second compound 0.01 µM, first compound 0.03 µM) 9.84% | viability, T/C (second compound 0.01 µM, first compound 0.0949 µM) 3.15% | viability, T/C (second compound 0.01 µM, first compound 0.3 µM) 1.53% | viability, T/C (second compound 0.0316 µM, first compound 0.03 µM) 9.96% | viability, T/C (second compound 0.0316 µM, first compound 0.0949 µM) 3.02% | viability, T/C (second compound 0.0316 µM, first compound 0.3 µM) 1.51% | viability, T/C (second compound 0.1 µM, first compound 0.03 µM) 8.28% | viability, T/C (second compound 0.1 µM, first compound 0.0949 µM) 4.23% | viability, T/C (second compound 0.1 µM, first compound 0.3 µM) 1.49% | viability, T/C (second compound 0.316 µM, first compound 0.03 µM) 9.08% | viability, T/C (second compound 0.316 µM, first compound 0.0949 µM) 3.9% | viability, T/C (second compound 0.316 µM, first compound 0.3 µM) 1.28% | viability, T/C (second compound 1 µM, first compound 0.03 µM) 10.1% | viability, T/C (second compound 1 µM, first compound 0.0949 µM) 3.83% | viability, T/C (second compound 1 µM, first compound 0.3 µM) 1.36%
inactive: viability, T/C (second compound 0.00316 µM, first compound 0.000949 µM) 91.2% | viability, T/C (second compound 0.00316 µM, first compound 0.003 µM) 60.4% | viability, T/C (second compound 0.00316 µM, first compound 0.00949 µM) 22.1% | viability, T/C (second compound 0.01 µM, first compound 0.000949 µM) 97.2% | viability, T/C (second compound 0.01 µM, first compound 0.003 µM) 58.9% | viability, T/C (second compound 0.01 µM, first compound 0.00949 µM) 21.3% | viability, T/C (second compound 0.0316 µM, first compound 0.000949 µM) 99.2% | viability, T/C (second compound 0.0316 µM, first compound 0.003 µM) 67.4% | viability, T/C (second compound 0.0316 µM, first compound 0.00949 µM) 20% | viability, T/C (second compound 0.1 µM, first compound 0.000949 µM) 92.8% | viability, T/C (second compound 0.1 µM, first compound 0.003 µM) 59.4% | viability, T/C (second compound 0.1 µM, first compound 0.00949 µM) 19.2% | viability, T/C (second compound 0.316 µM, first compound 0.000949 µM) 100% | viability, T/C (second compound 0.316 µM, first compound 0.003 µM) 60.7% | viability, T/C (second compound 0.316 µM, first compound 0.00949 µM) 20.4% | viability, T/C (second compound 1 µM, first compound 0.000949 µM) 99.3% | viability, T/C (second compound 1 µM, first compound 0.003 µM) 65% | viability, T/C (second compound 1 µM, first compound 0.00949 µM) 19.3%
4.1 nM: IC50 (curve of first compound, second compound 0.00316 µM)
4.39 nM: IC50 (curve of first compound, second compound 1 µM)

CCN1CCN(Cc2ccc(Nc3ncc(F)c(-c4cc(F)c5nc(C)n(C(C)C)c5c4)n3)nc2)CC1
> 1000 nM: IC50 (curve of compound)
inactive: viability, T/C (compound 0.00316 µM) 102% [middle of 4 runs] | viability, T/C (compound 0.01 µM) 99.6% [middle of 4 runs] | viability, T/C (compound 0.0316 µM) 93.5% and 96.4% and 101% (2×) | viability, T/C (compound 0.1 µM) 100% [middle of 4 runs] | viability, T/C (compound 0.316 µM) 113% [middle of 4 runs] | viability, T/C (compound 1 µM) 125% [middle of 4 runs]
